Test results: patent US11561217B2, “Compounds inhibiting Nef-calnexin interaction” (The George Washington University, a Congressionally …, priority 2016, dated 2023)
Entries after “also recorded” stand apart in the source; their conditions may differ.

Experiments:
[1] = molecular target: T1, Nef/CNX interaction (Human immunodeficiency virus type 1 group M subtype B, UniProt P03406); test: Co-immunoprecipitation of Nef and calnexin in transfected HEK293T cells; assay type: cell-based, HIV-1; conditions: for inhibition of co-immunoprecipitation of Nef and calnexin: added 6 h post-transfection, lysed 48 h post-transfection, HEK293T
T1 construct: expressed in transfected cells; host or cells: HEK293T
Experimental: (§1) To test whether the compounds identified in the virtual screen can interfere with Nef/CNX interaction, a co-immunoprecipitation assay was performed. HEK293T cells were transfected with plasmid encoding for NefBRU and 6 h post-transfection were treated with NSC 1758 (4 μM), NSC 13987 (5 μM), or NSC 92938 (5 μM). These concentrations of the compounds were determined by the MTT assay to reduce cell metabolism by less than 10% during 5-day incubation (FIG. 6C). […] It was previously shown that membrane localization of Nef is important for interaction of Nef with calnexin (5). In order to rule out the possibility that the compound interferes with membrane localization of Nef, it was tested whether NSC 13987 affects interaction between Nef and ABCA1, as ABCA1/Nef interaction also requires membrane localization of Nef (1).
Their overall location in the structural alignment with the model of Nef-CNX complex is shown as translucent molecular surface. […] The set of compounds includes NSC 1758, NSC 13987, and NSC 92938 selected for experimental testing. b, Compound NSC 13987 docked to Nef binding site, which is centered on Lys4 and Lys7. Interactions of the compound with Nef include two hydrogen bonds with Nef amino acid residues Ser6 and Tyr124. […] THP-1 cells were treated with indicated compounds for 5 days and cytotoxicity was measured using MTT assay. In panel (D), HEK 293T cells were transfected with HA-tagged Nef, treated with compounds NSC 1758, NSC 13987 or NSC 92938, and lysed. Nef was immunoprecipitated using anti-HA agarose beads and bound complexes were immunoblotted for Nef and calnexin (left panels labeled IP: aIIA). Densitometric quantification of calnexin co-immunoprecipitation with Nef is presented in the right panel. Error bars indicate +/−SD of 3 independent experiments, and p values are shown above the bars. Whole cell lysates were analyzed for amount of calnexin, Nef and GAPDH (left panels labeled Lysate). In panel (E), HEK293T cells were co-transfected with ABCA1-FLAG and NefBRU and treated with compound NSC 13987. Cells were lysed 48 h post-transfection and ABCA1-FLAG was immunoprecipitated using anti-FLAG beads. Precipitated complexes were blotted for ABCA1 and Nef (top panels). Input amount was analyzed from whole cell lysates by immunoblotting for ABCA1, Nef and GAPDH (bottom panels).
Immunoprecipitation—For calnexin mutant/Nef interaction analysis, HEK293T cells were transfected with HA-tagged calnexin mutants and NefBRU expression plasmid. Cells were lysed 48 h post-transfection with 1% IGEPAL and 0.1% SDS lysis buffer on ice for 30 min. Lysates were incubated with anti-HA agarose beads for 2 h at 4° C. with rotation. Respective immunoprecipitates were washed three times with TBS (150 mM NaCl, 30 mM Tris-HCl, 5 mM EDTA, pH 7.5). […]

[2] = molecular target: T2, ABCA1/Nef interaction (Human immunodeficiency virus type 1 group M subtype B, UniProt P03406); test: Co-immunoprecipitation of ABCA1-FLAG and Nef in HEK293T cells; assay type: cell-based, HIV-1; conditions: HEK293T co-transfected with ABCA1-FLAG and NefBRU, lysed 48 h post-transfection
T2 construct: expressed in transfected cells; host or cells: HEK293T
T2 sequence (O95477 whole entry, other chains not shown): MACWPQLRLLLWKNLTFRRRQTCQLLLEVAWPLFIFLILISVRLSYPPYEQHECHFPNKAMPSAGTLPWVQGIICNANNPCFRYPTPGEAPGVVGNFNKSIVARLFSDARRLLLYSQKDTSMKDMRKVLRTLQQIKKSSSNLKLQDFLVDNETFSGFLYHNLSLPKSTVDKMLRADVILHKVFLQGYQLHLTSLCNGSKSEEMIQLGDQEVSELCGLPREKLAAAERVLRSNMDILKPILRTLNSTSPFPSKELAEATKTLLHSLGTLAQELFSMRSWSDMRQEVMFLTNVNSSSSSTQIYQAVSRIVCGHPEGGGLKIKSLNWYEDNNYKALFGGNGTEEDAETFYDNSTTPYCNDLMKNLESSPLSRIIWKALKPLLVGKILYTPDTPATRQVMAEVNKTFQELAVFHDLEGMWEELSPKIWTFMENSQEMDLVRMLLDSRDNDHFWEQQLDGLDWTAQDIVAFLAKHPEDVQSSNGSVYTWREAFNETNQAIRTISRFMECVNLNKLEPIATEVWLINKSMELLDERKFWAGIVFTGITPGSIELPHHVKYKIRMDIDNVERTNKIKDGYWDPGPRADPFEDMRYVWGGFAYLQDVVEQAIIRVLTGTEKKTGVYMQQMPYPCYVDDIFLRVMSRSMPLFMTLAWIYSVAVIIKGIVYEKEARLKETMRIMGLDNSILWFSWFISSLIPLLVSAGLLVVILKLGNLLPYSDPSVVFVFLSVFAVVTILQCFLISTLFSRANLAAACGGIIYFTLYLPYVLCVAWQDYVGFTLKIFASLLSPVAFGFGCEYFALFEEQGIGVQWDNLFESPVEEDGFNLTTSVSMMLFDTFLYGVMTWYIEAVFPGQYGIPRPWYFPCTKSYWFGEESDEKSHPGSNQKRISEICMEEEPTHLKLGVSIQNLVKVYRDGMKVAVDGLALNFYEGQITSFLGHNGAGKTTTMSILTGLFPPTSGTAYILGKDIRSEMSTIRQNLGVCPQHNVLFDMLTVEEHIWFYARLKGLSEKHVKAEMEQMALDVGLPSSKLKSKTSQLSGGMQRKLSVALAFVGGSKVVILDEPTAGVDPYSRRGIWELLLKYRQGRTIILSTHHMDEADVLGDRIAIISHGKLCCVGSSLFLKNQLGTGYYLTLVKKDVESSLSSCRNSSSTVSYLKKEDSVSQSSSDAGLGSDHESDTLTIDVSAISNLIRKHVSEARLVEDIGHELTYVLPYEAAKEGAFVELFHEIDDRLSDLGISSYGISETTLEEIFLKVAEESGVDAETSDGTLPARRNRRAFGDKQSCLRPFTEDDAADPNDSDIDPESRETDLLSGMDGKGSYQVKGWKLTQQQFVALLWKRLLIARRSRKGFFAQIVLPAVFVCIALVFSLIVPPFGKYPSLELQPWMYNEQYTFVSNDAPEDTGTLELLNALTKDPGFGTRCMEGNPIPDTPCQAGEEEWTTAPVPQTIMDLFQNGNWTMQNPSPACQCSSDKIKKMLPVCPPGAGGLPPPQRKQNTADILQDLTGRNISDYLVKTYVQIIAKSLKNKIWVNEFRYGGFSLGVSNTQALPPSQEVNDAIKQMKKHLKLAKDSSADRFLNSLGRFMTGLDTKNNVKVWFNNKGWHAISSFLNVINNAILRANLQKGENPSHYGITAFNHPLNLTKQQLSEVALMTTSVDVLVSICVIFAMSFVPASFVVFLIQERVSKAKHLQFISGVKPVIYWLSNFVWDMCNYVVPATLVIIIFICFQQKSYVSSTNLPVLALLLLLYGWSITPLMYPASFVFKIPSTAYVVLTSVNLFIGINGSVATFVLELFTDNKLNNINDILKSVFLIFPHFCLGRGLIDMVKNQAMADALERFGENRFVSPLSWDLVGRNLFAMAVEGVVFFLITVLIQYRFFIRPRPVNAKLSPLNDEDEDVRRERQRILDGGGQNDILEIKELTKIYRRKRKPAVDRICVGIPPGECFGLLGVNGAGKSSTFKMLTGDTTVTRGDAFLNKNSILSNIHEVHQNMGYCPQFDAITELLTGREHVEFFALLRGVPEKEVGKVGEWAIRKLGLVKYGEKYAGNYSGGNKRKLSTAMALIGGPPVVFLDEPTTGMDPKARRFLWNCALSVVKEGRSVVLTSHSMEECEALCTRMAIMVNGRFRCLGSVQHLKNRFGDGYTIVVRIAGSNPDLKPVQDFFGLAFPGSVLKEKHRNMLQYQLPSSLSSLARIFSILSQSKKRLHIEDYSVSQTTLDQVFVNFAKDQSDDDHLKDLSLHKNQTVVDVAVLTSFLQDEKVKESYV
Experimental: as §1
Their overall location in the structural alignment with the model of Nef-CNX complex is shown as translucent molecular surface. […] THP-1 cells were treated with indicated compounds for 5 days and cytotoxicity was measured using MTT assay. […] Densitometric quantification of calnexin co-immunoprecipitation with Nef is presented in the right panel. […] Whole cell lysates were analyzed for amount of calnexin, Nef and GAPDH (left panels labeled Lysate). […] Input amount was analyzed from whole cell lysates by immunoblotting for ABCA1, Nef and GAPDH (bottom panels).

[3] = tested on: THP-1 cells transfected with Nef; test: apoA-I specific cholesterol efflux in Nef-transfected THP-1 cells; assay type: cell-based; conditions: THP-1, PMA-activated, compared to DMSO-treated Nef expressing cells
Experimental: Next, it was tested whether the three compounds could prevent impairment of cholesterol efflux by Nef. THP-1 cells were transfected with a Nef encoding plasmid and drug treatment was started 6 h after transfection. The following day cells were activated with PMA after which cholesterol efflux assay was performed. Drug treatment was continued throughout the duration of the experiment. […] Cholesterol efflux in Nef-transfected untreated or DMSO-treated cells was reduced by over 2-fold relative to mock-transfected cells.
Specifically, in panel (A) THP-1 cells were transfected with Nef and incubated with compounds NSC 1758, NSC 13987 and NSC 92938 or DMSO, and cholesterol efflux was measured 5 days post-transfection. Error bars show SEM. In panel (B) primary macrophages were infected in triplicate with HIV-1 ADA. Compound NSC 13987 (5 μM) or DMSO was added 3 days after infection and maintained thereafter, and virus replication was monitored by measuring RT-activity in the supernatant over a 14-day period. […] In panel (C) primary macrophages were infected with HIV-1 ADA or mock-infected and treated with DMSO or NSC13987 as in panel B. Cholesterol efflux was measured 14 days post-infection. […]
Cholesterol Efflux—Infected cells were seeded in a 24-well plate and labeled with [^3H] cholesterol for 48 h. […] Level of radioactivity in the media as well as in the cells was determined by scintillation counting. […]

[4] = tested on: HIV-1 ADA; test: HIV-1 ADA replication in monocyte-derived macrophages (RT activity in supernatant); assay type: cell-based
Experimental: (§2) To test the effect of NSC 13987 in the context of natural infection, monocyte-derived macrophages (MDM) were infected with HIV-1 ADA, treated with NSC 13987 and cholesterol efflux was measured.
(§3) Specifically, in panel (A) THP-1 cells were transfected with Nef and incubated with compounds NSC 1758, NSC 13987 and NSC 92938 or DMSO, and cholesterol efflux was measured 5 days post-transfection. Error bars show SEM. In panel (B) primary macrophages were infected in triplicate with HIV-1 ADA. Compound NSC 13987 (5 μM) or DMSO was added 3 days after infection and maintained thereafter, and virus replication was monitored by measuring RT-activity in the supernatant over a 14-day period. Results of 3 measurements are shown as mean ±SEM. *, p<0.005; **, p<0.007. In panel (C) primary macrophages were infected with HIV-1 ADA or mock-infected and treated with DMSO or NSC13987 as in panel B. Cholesterol efflux was measured 14 days post-infection. Error bars show SEM.

[5] = tested on: monocyte-derived macrophages (MDM) infected with HIV-1 ADA; test: Cholesterol efflux from HIV-1 ADA infected monocyte-derived macrophages; assay type: cell-based; conditions: 14 days post-infection, versus mock-infected cells
Experimental: as §2, §3
Cholesterol Efflux—Infected cells were seeded in a 24-well plate and labeled with [^3H] cholesterol for 48 h. […] Level of radioactivity in the media as well as in the cells was determined by scintillation counting. Cholesterol efflux was calculated as the percentage of radioactivity in the media divided by the total amount measured in the cells and media. […]

[6] = tested on: ABCA1; test: ABCA1 abundance in the presence of Nef; assay type: cell-based
[7] = molecular target: T3, calnexin (CNX) (Homo sapiens, UniProt P27824); test: Surface plasmon resonance, immobilized full-length calnexin; assay type: binding; conditions: myristoylated Nef injected at 6.25-200 nM, 25° C.
T3 construct: Full length CNX and the C-terminal (cytoplasmic) domain of CNX (CNX-CT) were captured on CMS chips by amine coupling; His-tag (H8) (N); made in house; host or cells: E. coli BL21 DE
T3 sequence (P27824 21-592): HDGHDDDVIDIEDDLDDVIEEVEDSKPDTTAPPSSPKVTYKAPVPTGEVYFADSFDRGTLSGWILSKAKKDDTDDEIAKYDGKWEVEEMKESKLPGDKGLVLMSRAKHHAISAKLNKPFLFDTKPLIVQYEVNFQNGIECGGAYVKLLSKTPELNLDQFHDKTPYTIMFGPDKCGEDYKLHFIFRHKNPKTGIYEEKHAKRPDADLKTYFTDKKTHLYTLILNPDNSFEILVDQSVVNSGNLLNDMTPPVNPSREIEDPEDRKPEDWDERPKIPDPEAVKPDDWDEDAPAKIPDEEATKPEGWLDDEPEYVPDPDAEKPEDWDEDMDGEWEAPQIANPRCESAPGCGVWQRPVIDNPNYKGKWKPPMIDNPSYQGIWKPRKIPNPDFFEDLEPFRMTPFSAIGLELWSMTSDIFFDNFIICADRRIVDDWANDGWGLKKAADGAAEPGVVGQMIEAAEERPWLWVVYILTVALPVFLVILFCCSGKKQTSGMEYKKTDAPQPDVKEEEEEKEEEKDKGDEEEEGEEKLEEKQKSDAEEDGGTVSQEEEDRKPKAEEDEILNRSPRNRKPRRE
Experimental: (§4) Binding of myristoylated NefsF2 (33) to CNX and its cytoplasmic domain was analyzed using surface plasmon resonance (FIGS. 5B,C). CNX and CNX-CT were immobilized on microchip surfaces and myristoylated Nef was injected over the surface.
Steps of full-length CL7-tagged calnexin (CNX-CL7) purification are shown in detail. Whole cell lysate (WCL) was centrifuged to remove cell debris, the supernatant (SN) was treated with 0.07% polyethylene-emine (PE) to precipitate DNA, the pellet (PL), which contained most of CNX protein, was washed with detergent-containing buffer to release CNX into solution, centrifuged and the resulting supernatant was loaded on Immunity protein 7 (Im7) column. […] ACNX—truncated CNX fragment; SUMO—SUMO domain; P(PSC), P(SUMOP)—cleavage sites for the PSC and SUMO proteases, respectively; H8—8-Histidine tag (SEQ ID NO: 2). In panels (B) and (C), surface plasmon resonance experiments were done in a Biacore T-200 by using a CMS chip. […]
Surface Plasmon Resonance Experiments—Direct binding between purified recombinant proteins was evaluated by surface plasmon resonance technology utilizing a Biacore T-200 instrument at the Biacore Molecular Interaction Shared Resource of Georgetown University. […] The data was analyzed by BiaEvaluation software using the bivalent analyte model.

[8] = molecular target: T4, cytoplasmic tail of CNX (CNX-CT) (Homo sapiens, UniProt P27824); test: Surface plasmon resonance, immobilized calnexin cytoplasmic tail; assay type: binding; conditions: myristoylated Nef injected at 6.25-200 nM, 25° C.
T4 construct: the C-terminal (cytoplasmic) domain of CNX (CNX-CT) were captured on CMS chips by amine coupling; His-tag (N); SUMO domain (N); made in house; host or cells: E. coli BL21 DE
T4 sequence (P27824 503-592 limits assumed): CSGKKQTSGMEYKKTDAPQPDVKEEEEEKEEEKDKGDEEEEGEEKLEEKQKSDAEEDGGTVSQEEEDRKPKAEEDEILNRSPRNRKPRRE
Experimental: as §4
Steps of full-length CL7-tagged calnexin (CNX-CL7) purification are shown in detail. Whole cell lysate (WCL) was centrifuged to remove cell debris, the supernatant (SN) was treated with 0.07% polyethylene-emine (PE) to precipitate DNA, the pellet (PL), which contained most of CNX protein, was washed with detergent-containing buffer to release CNX into solution, centrifuged and the resulting supernatant was loaded on Immunity protein 7 (Im7) column. […] ACNX—truncated CNX fragment; SUMO—SUMO domain; P(PSC), P(SUMOP)—cleavage sites for the PSC and SUMO proteases, respectively; H8—8-Histidine tag (SEQ ID NO: 2). In panels (B) and (C), surface plasmon resonance experiments were done in a Biacore T-200 by using a CMS chip. […] Lines representing actual data and a curve fit to a […] analyte binding model in BiaEvaluation software are shown.
Surface Plasmon Resonance Experiments—Direct binding between purified recombinant proteins was evaluated by surface plasmon resonance technology utilizing a Biacore T-200 instrument at the Biacore Molecular Interaction Shared Resource of Georgetown University. Full length CNX and the C-terminal (cytoplasmic) domain of CNX (CNX-CT) were captured on CMS chips by amine coupling. Three surfaces of CM5 chip were activated by NHS/CDC (N-hydroxysuccinimide/1-ethyl-3-(3-dimethylaminopropyl)carbodiimide hydrochloride) for 720 sec. Flow cell 1 was left empty as a reference surface. Full length CNX and CNX-CT were diluted in 10 mM sodium acetate (pH 4.0) buffer at 1.8 μM and 10.6 μM, respectively, and captured on flow cell 3 and flow cell 2, at 3200 RU and 16600 RU, respectively. After protein capture, all 3 flow cells were inactivated by 720 sec injection of 1 M ethanolamine. […] The data was analyzed by BiaEvaluation software using the bivalent analyte model.

## N=C(Nc1cc2ccccc2c2ccccc12)Nc1cc2ccccc2c2ccccc12 [NSC 1758, 1,3-DI-9-Phenanthrylguanidine]
[1]; 4 μM
  inhibition of co-immunoprecipitation of Nef and calnexin: showed a trend towards inhibiting Nef/CNX binding but did not reach statistical significance

## O=C1c2ccccc2C(=O)c2c(Nc3ccc4c5c(cccc35)C(=O)c3ccccc3-4)cccc21 [NSC 13987, 1[(7-Oxo-7H-benz[de]anthracene-3-yl)amino] anthraquinone]
[1]; 5 μM
  inhibition of co-immunoprecipitation of Nef and calnexin: prevented co-precipitation of CNX with Nef
[1]; HEK-293T, read-out: inhibition of co-immunoprecipitation of Nef and calnexin
  inhibition at 5 µM: > 50%
[2]
  effect on ABCA1/Nef interaction: remained unaffected
[3]
  cholesterol efflux in Nef-transfected cells: significantly increased; also recorded: restored cholesterol efflux impaired by Nef
[4]; 5 μM added 3 days after infection, RT activity over 14 days, primary macrophages
  viral replication in the presence of the compound: reduced
[4]; FIG. 7B, HIV-1 ADA in primary macrophages, 5 μM
  inhibition of viral replication: ~2 fold
[5]
  cholesterol efflux from HIV-infected cells: not significantly different from that of mock-infected cells
[6]
  Nef-mediated effect on ABCA1 abundance: reversed Nef-mediated effect on ABCA1 abundance

## O=C1c2ccccc2C(=O)c2c1ccc1c2[nH]c2ccccc21 [NSC 92938, 5H-Naphtho(2,3-a)carbazole-5,13(12H)-dione]
[1]; 5 μM
  inhibition of co-immunoprecipitation of Nef and calnexin: showed a trend towards inhibiting Nef/CNX binding but did not reach statistical significance

## NefSF2: myristoylated HIV-1 Nef SF2 protein injected over immobilized calnexin in surface plasmon resonance
[7]
  ka: 133800 M⁻¹ s⁻¹
  kd: 0.01192 s⁻¹
[8]
  ka: 908300 M⁻¹ s⁻¹
  kd: 0.008569 s⁻¹
[8]; Biacore T-200, read-out: affinity (KD)
  Kd: 9.4 nM
